{"source": "patent EP4744682A1", "about": "“NOVEL CERIUM OXIDE NANOCOMPOSITE WITH ENHANCED BIOSTABILITY AND USE THEREOF” (Cenyx Biotech Inc., priority 2023, dated 2025)", "tested_on": "Hepa-1C1C7 hepatocyte cells", "assay": "Survival of pyrogallol-treated hepatocytes, NRU assay", "format": "cell-based", "details": "500µM pyrogallol alone; 3 hours; compared to pyrogallol-untreated control", "method": "Inflammatory liver disease is a condition where the liver cannot perform its normal functions due to liver damage, metabolic disorders, and accumulation of toxic substances. The present inventors sought to verify the therapeutic effect of the cerium oxide nanocomplex of the present invention on inflammatory liver disease. To induce the disease, Hepa-1C1C7 hepatocyte cells were treated with 500µM pyrogallol, a cytotoxic substance, to induce acute inflammatory liver disease. Simultaneously, the cells were treated with the cerium oxide nanocomplex of the present invention at concentrations ranging from 0.01 to 5µM. Three hours after treatment, the survival rate of Hepa-lclc7 cells was measured using the NRU assay, a biochemical analysis method that measures cell survival by allowing the neutral red dye to be absorbed by living cells. […] When treated with the cerium oxide nanocomplex of the present invention, survival rates of 74.55% at a minimum concentration of 0.01 µM and approximately 93.19% at a maximum concentration of 5µM were observed. This represents an increase in survival rate of at least 47.81% to a maximum of 84.78% compared to cells treated with pyrogallol alone (FIG. 13).", "data": [{"smiles": "Oc1cccc(O)c1O", "note": "[pyrogallol]", "values": [{"measurement": "survival rate of cells", "result": "approximately 50.43%"}]}]}
